Laboratory results taken from US9469650B2, “Melampomagnolide B derivatives” (BOARD OF TRUSTEES OF THE UNIVERSITY OF ARKANSAS, priority 2013, dated 2016).

Tests used:
A549/ATCC = assay: panel of 60 human tumor cell lines, growth inhibition (Non-Small Cell Lung Cancer); settings: A549/ATCC
SW-620 = assay: panel of 60 human tumor cell lines, growth inhibition (Colon Cancer); settings: SW-620
K-562 = assay: panel of 60 human tumor cell lines, growth inhibition (Leukemia); settings: K-562
NCI-H522 = assay: panel of 60 human tumor cell lines, growth inhibition (Non-Small Cell Lung Cancer); settings: NCI-H522
SF-295 = assay: panel of 60 human tumor cell lines, growth inhibition (CNS Cancer); settings: SF-295
UACC-257 = assay: panel of 60 human tumor cell lines, growth inhibition (Melanoma); settings: UACC-257
HCT-15 = assay: panel of 60 human tumor cell lines, growth inhibition (Colon Cancer); settings: HCT-15
BT-549 = assay: panel of 60 human tumor cell lines, growth inhibition (Breast Cancer); settings: BT-549
TK-10 = assay: panel of 60 human tumor cell lines, growth inhibition (Renal Cancer); settings: TK-10
SF-268 = assay: panel of 60 human tumor cell lines, growth inhibition (CNS Cancer); settings: SF-268
NCI-H322M = assay: panel of 60 human tumor cell lines, growth inhibition (Non-Small Cell Lung Cancer)
SNB-75 = assay: panel of 60 human tumor cell lines, growth inhibition (CNS Cancer); settings: SNB-75
T-47D = assay: panel of 60 human tumor cell lines, growth inhibition (Breast Cancer); settings: T-47D
HS 578T = assay: as above; settings: HS 578T
OVCAR-5 = assay: panel of 60 human tumor cell lines, growth inhibition (Ovarian Cancer); settings: OVCAR-5
HCT-116 = assay: panel of 60 human tumor cell lines, growth inhibition (Colon Cancer); settings: HCT-116
OVCAR-3 = assay: panel of 60 human tumor cell lines, growth inhibition (Ovarian Cancer); settings: OVCAR-3
HT29 = assay: panel of 60 human tumor cell lines, growth inhibition (Colon Cancer); settings: HT29

## C=C1C(=O)O[C@H]2[C@H]1CC/C(COC(=O)CCC(=O)N1CCC(C)CC1)=C\CC[C@@]1(C)O[C@@H]21 [JVM 2-70]
A549/ATCC; Log10 Concentration −4.0
  Percent Growth: −68%
A549/ATCC; Log10 Concentration −5.0
  Percent Growth: 79%
A549/ATCC; Log10 Concentration −6.0
  Percent Growth: 93%
A549/ATCC; Log10 Concentration −7.0
  Percent Growth: 96%
A549/ATCC; Log10 Concentration −8.0
  Percent Growth: 97%
A549/ATCC; NCI five dose
  GI50: 15.8 µM
  TGI: 3.47E−5
SW-620; Log10 Concentration −4.0
  Percent Growth: −80%
SW-620; Log10 Concentration −5.0
  Percent Growth: 1%
SW-620; Log10 Concentration −6.0
  Percent Growth: 79%
SW-620; Log10 Concentration −7.0
  Percent Growth: 97%
SW-620; Log10 Concentration −8.0
  Percent Growth: 99%
SW-620; NCI five dose
  GI50: 2.33 µM
  TGI: 1.02E−5
K-562; Log10 Concentration −4.0
  Percent Growth: −38%
K-562; Log10 Concentration −5.0
  Percent Growth: 7%
K-562; Log10 Concentration −6.0
  Percent Growth: 90%
K-562; Log10 Concentration −7.0
  Percent Growth: 109%
K-562; Log10 Concentration −8.0
  Percent Growth: 109%
K-562; NCI five dose
  GI50: 3.06 µM
  TGI: 1.45E−5
NCI-H522; Log10 Concentration −4.0
  Percent Growth: −71%
NCI-H522; Log10 Concentration −5.0
  Percent Growth: −87%
NCI-H522; Log10 Concentration −6.0
  Percent Growth: 80%
NCI-H522; Log10 Concentration −7.0
  Percent Growth: 96%
NCI-H522; Log10 Concentration −8.0
  Percent Growth: 93%
NCI-H522; NCI five dose
  GI50: 1.5 µM
  TGI: 3.00E−6
SF-295; Log10 Concentration −4.0
  Percent Growth: −72%
SF-295; Log10 Concentration −5.0
  Percent Growth: 74%
SF-295; Log10 Concentration −6.0
  Percent Growth: 93%
SF-295; Log10 Concentration −7.0
  Percent Growth: 93%
SF-295; Log10 Concentration −8.0
  Percent Growth: 89%
SF-295; NCI five dose
  GI50: 14.7 µM
  TGI: 3.23E−5
UACC-257; Log10 Concentration −4.0
  Percent Growth: −86%
UACC-257; Log10 Concentration −5.0
  Percent Growth: 23%
UACC-257; Log10 Concentration −6.0
  Percent Growth: 83%
UACC-257; Log10 Concentration −7.0
  Percent Growth: 92%
UACC-257; Log10 Concentration −8.0
  Percent Growth: 91%
UACC-257; NCI five dose
  GI50: 3.57 µM
  TGI: 1.64E−5
HCT-15; Log10 Concentration −4.0
  Percent Growth: −70%
HCT-15; Log10 Concentration −5.0
  Percent Growth: −29%
HCT-15; Log10 Concentration −6.0
  Percent Growth: 74%
HCT-15; Log10 Concentration −7.0
  Percent Growth: 91%
HCT-15; Log10 Concentration −8.0
  Percent Growth: 90%
HCT-15; NCI five dose
  GI50: 1.7 µM
  TGI: 5.22E−6
BT-549; Log10 Concentration −4.0
  Percent Growth: −96%
BT-549; Log10 Concentration −5.0
  Percent Growth: −10%
BT-549; Log10 Concentration −6.0
  Percent Growth: 71%
BT-549; Log10 Concentration −7.0
  Percent Growth: 86%
BT-549; Log10 Concentration −8.0
  Percent Growth: 81%
BT-549; NCI five dose
  GI50: 1.82 µM
  TGI: 7.55E−6
TK-10; Log10 Concentration −4.0
  Percent Growth: −97%
TK-10; Log10 Concentration −5.0
  Percent Growth: 9%
TK-10; Log10 Concentration −6.0
  Percent Growth: 109%
TK-10; Log10 Concentration −7.0
  Percent Growth: 106%
TK-10; Log10 Concentration −8.0
  Percent Growth: 97%
TK-10; NCI five dose
  GI50: 3.9 µM
  TGI: 1.23E−5
SF-268; Log10 Concentration −4.0
  Percent Growth: −72%
SF-268; Log10 Concentration −5.0
  Percent Growth: 67%
SF-268; Log10 Concentration −6.0
  Percent Growth: 93%
SF-268; Log10 Concentration −7.0
  Percent Growth: 101%
SF-268; Log10 Concentration −8.0
  Percent Growth: 100%
SF-268; NCI five dose
  GI50: 13.2 µM
  TGI: 3.02E−5
NCI-H322M; Log10 Concentration −4.0
  Percent Growth: −83%
NCI-H322M; Log10 Concentration −5.0
  Percent Growth: 93%
NCI-H322M; Log10 Concentration −6.0
  Percent Growth: 102%
NCI-H322M; Log10 Concentration −7.0
  Percent Growth: 108%
NCI-H322M; Log10 Concentration −8.0
  Percent Growth: 102%
NCI-H322M; NCI five dose
  GI50: 17.6 µM
  TGI: 3.39E−5
SNB-75; Log10 Concentration −4.0
  Percent Growth: −85%
SNB-75; Log10 Concentration −5.0
  Percent Growth: 57%
SNB-75; Log10 Concentration −6.0
  Percent Growth: 80%
SNB-75; Log10 Concentration −7.0
  Percent Growth: 81%
SNB-75; Log10 Concentration −8.0
  Percent Growth: 72%
SNB-75; NCI five dose
  GI50: 11.2 µM
  TGI: 2.53E−5
T-47D; Log10 Concentration −4.0
  Percent Growth: −48%
T-47D; Log10 Concentration −5.0
  Percent Growth: 34%
T-47D; Log10 Concentration −6.0
  Percent Growth: 94%
T-47D; Log10 Concentration −7.0
  Percent Growth: 94%
T-47D; Log10 Concentration −8.0
  Percent Growth: 86%
T-47D; NCI five dose
  GI50: 5.45 µM
  TGI: 2.61E−5
HS 578T; Log10 Concentration −4.0
  Percent Growth: 6%
HS 578T; Log10 Concentration −5.0
  Percent Growth: 70%
HS 578T; Log10 Concentration −6.0
  Percent Growth: 86%
HS 578T; Log10 Concentration −7.0
  Percent Growth: 92%
HS 578T; Log10 Concentration −8.0
  Percent Growth: 92%
HS 578T; NCI five dose
  GI50: 20.4 µM
  TGI: >1.00E−4
OVCAR-5; Log10 Concentration −4.0
  Percent Growth: −89%
OVCAR-5; Log10 Concentration −5.0
  Percent Growth: 41%
OVCAR-5; Log10 Concentration −6.0
  Percent Growth: 87%
OVCAR-5; Log10 Concentration −7.0
  Percent Growth: 87%
OVCAR-5; Log10 Concentration −8.0
  Percent Growth: 86%
OVCAR-5; NCI five dose
  GI50: 6.36 µM
  TGI: 2.06E−5
HCT-116; Log10 Concentration −4.0
  Percent Growth: −93%
HCT-116; Log10 Concentration −5.0
  Percent Growth: −46%
HCT-116; Log10 Concentration −6.0
  Percent Growth: 79%
HCT-116; Log10 Concentration −7.0
  Percent Growth: 95%
HCT-116; Log10 Concentration −8.0
  Percent Growth: 91%
HCT-116; NCI five dose
  GI50: 1.69 µM
  TGI: 4.25E−6
OVCAR-3; Log10 Concentration −4.0
  Percent Growth: −96%
OVCAR-3; Log10 Concentration −5.0
  Percent Growth: −2%
OVCAR-3; Log10 Concentration −6.0
  Percent Growth: 88%
OVCAR-3; Log10 Concentration −7.0
  Percent Growth: 105%
OVCAR-3; Log10 Concentration −8.0
  Percent Growth: 109%
OVCAR-3; NCI five dose
  GI50: 2.85 to 6 µM
  TGI: 9.47E−6
HT29; Log10 Concentration −4.0
  Percent Growth: −87%
HT29; Log10 Concentration −5.0
  Percent Growth: 19%
HT29; Log10 Concentration −6.0
  Percent Growth: 103%
HT29; Log10 Concentration −7.0
  Percent Growth: 106%
HT29; Log10 Concentration −8.0
  Percent Growth: 99%
HT29; NCI five dose
  GI50: 4.28 µM
  TGI: 1.51E−5
